In US20240158446A1, “CYCLIC COMPOUND HAVING SELECTIVE INHIBITORY ACTION ON KRAS OVER HRAS AND NRAS” (CHUGAI SEIYAKU KABUSHIKI KAISHA, priority 2021, published 2024):
Where two headings read alike, the source gives them in different places. Where a SMILES comes first, the peptide text is derived from it. Bridges are numbered along the chain shown (N, C = ends). [ ]: non-standard residue; d: D form. The star is where a group is joined. hPhe(3,5-F2-4-CF3) = N[C@@H](CCc1cc(F)c(C(F)(F)F)c(F)c1)C(=O)O; hPhe(3-Cl-4-CF3) = N[C@@H](CCc1ccc(C(F)(F)F)c(Cl)c1)C(=O)O; NPrPhe(4-CF3) = CCCN[C@@H](Cc1ccc(C(F)(F)F)cc1)C(=O)O; NMeGly(cPent) = CN[C@H](C(=O)O)C1CCCC1; cisHyp = O=C(O)[C@@H]1C[C@H](O)CN1; NMeD = CN[C@@H](CC(=O)O)C(=O)O; NMeL = CN[C@@H](CC(C)C)C(=O)O; αMeV = CC(C)[C@](C)(N)C(=O)O; Morpholide = C1CN(*)CCO1; Ac5c = NC1(C(=O)O)CCCC1; Sar = CNCC(=O)O

Columns and labels:
[1] = biological target: GDP-bound KRAS wild-type protein (Homo sapiens, UniProt P01116); experiment: Binding to KRAS by surface plasmon resonance (SPR), Single Cycle Kinetics
[2] = biological target: GDP-bound NRAS wild-type protein (Homo sapiens, UniProt P01111); experiment: Binding to NRAS by surface plasmon resonance (SPR), Single Cycle Kinetics
[3] = biological target: GDP-bound HRAS wild-type protein (Homo sapiens, UniProt P01112); experiment: Binding to HRAS by surface plasmon resonance (SPR), Single Cycle Kinetics
[4] = system: human lung cancer strain NCI-H441;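 note: cell proliferation inhibition after four days measured by CellTiter-Glo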
[5] = SPR Single Cycle Kinetics, GDP-bound KRAS wild-type protein, 1:1 binding model, read-out: KRAS KD
[6] = SPR, GDP-bound NRAS wild-type protein vs GDP-bound KRAS wild-type protein
[7] = SPR, GDP-bound HRAS wild-type protein vs GDP-bound KRAS wild-type protein
[8] = SPR, Single Cycle Kinetics, 1:1 binding model, GDP-bound KRAS wild-type protein, read-out: KRAS KD
[9] = SPR, GDP-bound NRAS wild-type protein vs GDP-bound KRAS wild-type protein, KD ratio class
[10] = SPR, GDP-bound HRAS wild-type protein vs GDP-bound KRAS wild-type protein, KD ratio class
[11] = SPR, Single Cycle Kinetics, GDP-bound KRAS wild-type protein, read-out: KRAS KD

Sequence of GDP-bound KRAS wild-type protein (P01116 whole entry): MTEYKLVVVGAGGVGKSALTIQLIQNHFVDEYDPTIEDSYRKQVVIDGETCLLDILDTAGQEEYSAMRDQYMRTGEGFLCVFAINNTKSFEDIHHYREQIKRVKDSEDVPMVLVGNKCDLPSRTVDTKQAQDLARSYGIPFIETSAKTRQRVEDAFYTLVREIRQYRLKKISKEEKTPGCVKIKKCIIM
Sequence of GDP-bound HRAS wild-type protein (P01112 whole entry): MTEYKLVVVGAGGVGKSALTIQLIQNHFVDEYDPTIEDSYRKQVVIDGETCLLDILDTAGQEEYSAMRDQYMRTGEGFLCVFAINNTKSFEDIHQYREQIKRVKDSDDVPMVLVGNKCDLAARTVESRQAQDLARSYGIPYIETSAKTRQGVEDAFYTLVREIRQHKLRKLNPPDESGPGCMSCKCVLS
Sequence of GDP-bound NRAS wild-type protein (P01111 whole entry): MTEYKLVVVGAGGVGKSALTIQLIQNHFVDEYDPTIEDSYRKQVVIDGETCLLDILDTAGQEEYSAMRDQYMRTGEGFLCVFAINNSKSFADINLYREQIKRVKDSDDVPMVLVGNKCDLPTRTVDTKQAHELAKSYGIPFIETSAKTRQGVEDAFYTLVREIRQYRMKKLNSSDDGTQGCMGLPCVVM

Kd [1, 5] [nM]	IC50 [4] [nM]	Kd [1, 8] [nM]	Compound	NRAS/KRAS (ratio of KD value for NRAS to KD value for KRAS) [2, 6]	HRAS/KRAS (ratio of KD value for HRAS to KD value for KRAS) [3, 7]	NRAS/KRAS (ratio of KD value for NRAS to KD value for KRAS) [2, 9]	HRAS/KRAS (ratio of KD value for HRAS to KD value for KRAS) [3, 10]	other results
0.035	7.9	–	CCCN1C(=O)CN(C)C(=O)CN(C)C(=O)[C@H]([C@@H](C)CC)NC(=O)[C@H](CC(C)C)N(C)C(=O)C[C@@H](C(=O)N2CCOCC2)N(C)C(=O)[C@H](C2CCCC2)N(C)C(=O)C2(CCCC2)NC(=O)[C@@H]2C[C@H](O)CN2C(=O)[C@H](CCc2ccc(C(F)(F)F)c(Cl)c2)NC(=O)CN(C)C(=O)[C@@H]1Cc1ccc(C(F)(F)F)cc1 [PP0240] ([NMeL]I[Sar][Sar][NPrPhe(4-CF3)][Sar][hPhe(3-Cl-4-CF3)][cisHyp][Ac5c][NMeGly(cPent)][NMeD]-Morpholide; lactam N-11)	B (a compound having 3 or more and less than 10 is denoted as B)	C (A compound having a KD ratio of 0.1 or more and less than 3 is denoted as C)	–	–	–
–	20.2	0.24	CCO[C@@H]1C[C@H]2C(=O)NC3(CCC3)C(=O)N(C)[C@@H](C3CCCC3)C(=O)N(C)[C@H](C(=O)N3CCCC3)CC(=O)N(C)[C@@H](CC3CCC3)C(=O)N[C@@H]([C@@H](C)CC)C(=O)N(C)CC(=O)N(C)[C@H]3C/C=C\CCN(C3=O)[C@@H](Cc3ccc(C)cc3)C(=O)N(C)CC(=O)N[C@@H](CCc3cc(F)c(C(F)(F)F)c(F)c3)C(=O)N2C1 [PP1425]	–	–	A (a compound having 10 or more and less than 20 is denoted as A)	B (a compound having 3 or more and less than 10 is denoted as B)	–
–	23	0.19	CCO[C@@H]1C[C@H]2C(=O)NC3(CCC3)C(=O)N(C)[C@@H](C3CCCC3)C(=O)N(C)[C@H](C(=O)N3CCCC3)CC(=O)N(C)[C@@H](CC3CCCC3)C(=O)N[C@@H]([C@@H](C)CC)C(=O)N(C)CC(=O)N(C)[C@H]3C/C=C\CCN(C3=O)[C@@H](Cc3ccc(C)cc3)C(=O)N(C)CC(=O)N[C@@H](CCc3cc(F)c(C(F)(F)F)c(F)c3)C(=O)N2C1 [PP1412]	–	–	A (a compound having 10 or more and less than 20 is denoted as A)	A (a compound having 10 or more and less than 20 is denoted as A)	–
–	86.8	–	CC[C@H](C)[C@@H]1NC(=O)[C@H](CC)N(C)C(=O)C[C@@H](C(=O)N(C)C)N(C)C(=O)[C@H](C2CCCC2)N(C)C(=O)C2(CCC2)NC(=O)[C@@H]2C[C@H](F)CN2C(=O)[C@H](CCc2cc(F)c(C(F)(F)F)c(F)c2)NC(=O)CN(C)C(=O)[C@H](Cc2ccc(C(F)(F)F)cc2)N2CC/C=C\C[C@@H](C2=O)N(C)C(=O)CN(C)C1=O [PP1132, (2S,8S,12S,14S,20S,23S,27S,30S,36S,38Z)-20-cyclopentyl-8-[2-[3,5-difluoro-4-(trifluoromethyl)phenyl]ethyl]-27-ethyl-12-fluoro-N,N,4,19,22,26,32,35-octamethyl-30-[(1S)-1-methylpropyl]-3,6,9,15,18,21,25,28,31,34,42-undecaoxo-2-[[4-(trifluoromethyl)phenyl]methyl]spiro[1,4,7,10,16,19,22,26,29,32,35-undecazatricyclo[34.5.1.0^10,14]dotetracont-38-ene-17,1′-cyclobutane]-23-carboxamide]	A (a compound having 10 or more and less than 20 is denoted as A)	B (a compound having 3 or more and less than 10 is denoted as B)	–	–	Kd [1, 11]: 0.066 nM
–	–	–	CCC[C@H]1C(=O)N[C@@H]([C@@H](C)CC)C(=O)N2CCC[C@H]2C(=O)N(C)[C@H]2C/C=C\CCN(C2=O)[C@@H](Cc2ccc(C)cc2)C(=O)N(C)CC(=O)N[C@@H](CCc2ccc(C(F)(F)F)c(OC)c2)C(=O)N2C[C@H](OCC)C[C@H]2C(=O)N(C)C2(CCC2)C(=O)N(C)[C@@H](C2CCCC2)C(=O)N(C)[C@H](C(=O)N2CCCC2)CC(=O)N1C [PP3102, (1S,4S,10S,13S,17S,20S,26S,28R,32S,38S,42Z)-20-cyclopentyl-28-ethoxy-32-[2-[3-methoxy-4-(trifluoromethyl)phenyl]ethyl]-2,14,18,21,24,36-hexamethyl-10-[(1S)-1-methylpropyl]-13-propyl-38-(p-tolylmethyl)-17-(pyrrolidine-1-carbonyl)spiro[2,8,11,14,18,21,24,30,33,36,39-undecazatetracyclo[37.5.1.0^4,8.0^26,30]pentatetracont-42-ene-23,1′-cyclobutane]-3,9,12,15,19,22,25,31,34,37,45-undecone]	A (a compound having 10 or more and less than 20 is denoted as A)	A (a compound having 10 or more and less than 20 is denoted as A)	–	–	Kd ([1]; SPR, Single Cycle Kinetics, 1:1 binding model, read-out: KD value with respect to GDP-bound KRAS wild-type protein): 0.18 nM; Kd [1, 11]: 0.18 nM; ratio of the KD value with respect to GDP-bound NRAS wild-type protein to the KD value with respect to KRAS ([2]; SPR, KD(NRAS)/KD(KRAS)): A (a compound having 10 or more and less than 20 is denoted as A); ratio of the KD value with respect to GDP-bound HRAS wild-type protein to the KD value with respect to KRAS ([3]; SPR, KD(HRAS)/KD(KRAS)): A (a compound having 10 or more and less than 20 is denoted as A); IC50 ([4]; read-out: NCI-H441 cell proliferation inhibitory activity, 50% proliferation inhibitory concentration (IC50 value), NCI-H441, four days, CellTiter-Glo): 6.7 nM
–	36.6	0.19	CCO[C@@H]1C[C@H]2C(=O)NC3(CCCC3)C(=O)N(C)[C@@H](C3CCCC3)C(=O)N(C)[C@H](C(=O)N(C)C)CC(=O)N(C)[C@@H](CC(C)C)C(=O)N[C@@H]([C@@H](C)CC)C(=O)N(C)CC(=O)N(C)[C@H]3C/C=C\CCN(C3=O)[C@@H](CC3CCCCC3)C(=O)N(C)CC(=O)N[C@@H](CCc3cc(F)c(C(F)(F)F)c(F)c3)C(=O)N2C1 [PP1473]	–	–	A (a compound having 10 or more and less than 20 is denoted as A)	A (a compound having 10 or more and less than 20 is denoted as A)	–
0.49	62.6	–	CCOC[C@H]1C(=O)N[C@@H]([C@@H](C)CC)C(=O)N(C)CC(=O)N(C)[C@H]2C/C=C\CCN(C2=O)[C@@H](Cc2ccc(C(F)(F)F)cc2)C(=O)N(C)CC(=O)N[C@@H](CCc2ccc(Cl)c(Cl)c2)C(=O)N2C[C@H](OCC)C[C@H]2C(=O)NC2(CC(C)(C)C2)C(=O)N(C)[C@@H](CC2CCC2)C(=O)N(C)[C@H](C(=O)N(C)C)CC(=O)N1C [PP2767]	–	–	–	–	NRAS/KRAS (ratio of KD value with respect to GDP-bound NRAS wild-type protein to KD value with respect to KRAS) ([2]; SPR KD ratio NRAS/KRAS, class symbols): A (a compound having 10 or more and less than 20 is denoted as A); HRAS/KRAS (ratio of KD value with respect to GDP-bound HRAS wild-type protein to KD value with respect to KRAS) ([3]; SPR KD ratio HRAS/KRAS, class symbols): A (a compound having 10 or more and less than 20 is denoted as A)
0.87	69.5	–	CCCN1C(=O)CN(C)C(=O)CN(C)C(=O)[C@H]([C@@H](C)CC)NC(=O)[C@H](CC(C)C)N(C)C(=O)C[C@@H](C(=O)N2CCOCC2)N(C)C(=O)[C@H](C2CCCC2)N(C)C(=O)[C@](C)(C(C)C)NC(=O)[C@@H]2CCCN2C(=O)[C@H](CCc2cc(F)c(C(F)(F)F)c(F)c2)NC(=O)CN(C)C(=O)[C@@H]1Cc1ccc(C(F)(F)F)cc1 [PP0756] ([NMeL]I[Sar][Sar][NPrPhe(4-CF3)][Sar][hPhe(3,5-F2-4-CF3)]P[αMeV][NMeGly(cPent)][NMeD]-Morpholide; lactam N-11)	–	–	–	–	NRAS/KRAS (ratio of KD value with respect to NRAS to KD value with respect to KRAS) [2, 6]: B (a compound having 3 or more and less than 10 is denoted as B); HRAS/KRAS (ratio of KD value with respect to HRAS to KD value with respect to KRAS) [3, 7]: B (a compound having 3 or more and less than 10 is denoted as B)
